In patent US10987357B2, “Aerosolized fluoroquinolones and uses thereof” (Horizon Orphan, LLC, priority 2005, dated 2021):
Where “and” joins values, the source holds several entries; their conditions need not be identical. Equal values may be shown once. Where a name gives a salt, the structure may show the parent alone. Read-outs that look alike come from different tables or passages of the source.

Key:
Dissolution rate studies = details: 37° C.
[1] = in vivo; cited from earlier work
[2] = in vivo
Method: In the second test, the tolerability and taste of a small aerosol sample from a 0.5 ml aliquot of the test formulation was determined in a single healthy human volunteer, following nebulization in a PARI eFlow nebulizer (Table 12).
The tolerability and taste of the drug during a very brief administration period and for a period of 10 minutes post administration were monitored. Tolerability parameters were of the following types: (i) cough, cough sensation, or sneezing (ii) irritation, burning or tightness of throat, (ii) irritation or runniness in nasal passages or eyes, (iii) irritation, burning or tightness of the lungs or shortness of breadth, and (iv) dizziness, headache, nausea or other systemic effects.

[3] = cited from earlier work
[4] = system: P. aeruginosa strain PAM 1723; assay: Mouse lung infection efficacy model; details: Pseudomonas aeruginosa, PAM1723, in Mus musculus
Method: The inoculum is adjusted to ca. 5×10^6 CFU/ml by correlation of absorbance at 600 nm with predetermined plate counts. […] On day 5, mice are infected by an intratracheal instillation of 0.05 ml of inoculum while under isoflurane anesthesia (5% isoflurane in oxygen running at 4 L/min). […] Mice are sacrificed 1 and 4 hours after treatment, their lungs removed, homogenized and plated to determine colony counts.

[5] = in vivo; cited from earlier work; remark: listed apart in the source
[6] = system: Pseudomonas aeruginosa (Pa); details: cited from earlier work; for Pa MIC90: Table 6
[7] = 750 mg oral dose; cited from earlier work
MSSA = details: Table 6; cited from earlier work
[8] = system: methicillin resistant Staphylococcus aureus (MRSA); details: cited from earlier work; for MRSA MIC90: Table 6
[9] = system: Streptococcus pneumonia (Sp); details: Table 6; cited from earlier work
[10] = Rat pharmacokinetic model (IV vs microspray aerosol, intratracheal); type: in vivo, rats; details: for AUC: epithelial lining fluid (ELF)
Method: […] Blood samples are taken at various times over 3 hours to determine the plasma pharmacokinetic parameters. […] The plasma and tissue concentrations are determined by an HPLC method and the data are then fit using WinNonlin.

physchem = details: for Initial Solution pH / Initial Solution Appearance: 10 mg/mL in sterile water; for Initial Solution Appearance: room temperature; for solubility at 10 min: aqueous buffer, thermodynamic from solid; for After pH Adjustment Appearance / pH of final solution / After pH Adjustment pH: 10 mg/mL; for After pH Adjustment Appearance / After pH Adjustment pH: titrated with 1N HCl
Method: A 2 to 20 mg sample of each antibiotic was weighed into sterile plastic tubes and brought up with a volume of sterile water to make a 10 mg/mL solution or suspension of the antibiotic. Samples were incubated for approximately 10 minutes at room temperature with occasional mixing, prior to further handling.
The insoluble solutions were titrated with 1N HCl to the point of visible solubility, and the pH of the solubilized solution determined.
After the pH adjustment, and following a further 10 minute incubation period with occasional mixing, the final appearance of the solutions was determined, just prior to the aerosol tolerability and taste test.

[11] = Gemifloxacin formulations with organic bases: pH and osmolality; type: physicochemical; details: before pH adjustment
From the text: (§1) It was filtered through a 0.45 micron filter.
as §1, §1, §1, §1

elastase = details: cited from earlier work
[12] = 2-10 minutes, 500 ml pH 7.4 Tris buffer, paddles 100 rpm
[13] = 10-30 minutes, pH 7.4 Tris buffer
[14] = 1 h, read-out: DeltaLOG CPU 1 hr, route IT, dose 25 mg/kg, 1 hr post-drug administration
[15] = 4 h, read-out: DeltaLOG CPU 4 hr, route IT, dose 25 mg/kg, 4 hr post-drug administration
[16] = ip, 1 h, read-out: DeltaLOG CPU 1 hr, route IP, dose 25 mg/kg, 1 hr post-drug administration
[17] = ip, 4 h, read-out: DeltaLOG CPU 4 hr, route IP, dose 25 mg/kg, 4 hr post-drug administration
[18] = rat, inhaled or intranasal, IT, 10 mg/kg

C[C@H]1COc2c(N3CCN(C)CC3)c(F)cc3c(=O)c(C(=O)O)cn1c23.O=C(O)c1ccc2ccccc2c1O [levofloxacin xinafoate]
dissolution rate (Dissolution rate studies; [12]): approximately 1.24 mg/min
dissolution rate (Dissolution rate studies; [13]): 0.28 mg/min

CC1COc2c(N3CCN(C)CC3)c(F)cc3c(=O)c(C(=O)O)cn1c23 (racemic) [Ofloxacin]
distribution into sputum [1]: 79%
Aerosol Tolerability and Taste [2]: bitter chemical taste, mild cough sensation

CCC(=O)O[C@H]1[C@H](O[C@@H]2[C@@H](C)[C@H](O[C@H]3C[C@@](C)(OC)[C@@H](O)[C@H](C)O3)[C@@H](C)C(=O)O[C@H](CC)[C@@](C)(O)[C@H](O)[C@@H](C)C(=O)[C@H](C)C[C@@]2(C)O)O[C@H](C)C[C@@H]1N(C)C [erythromycin estolate]
solubility as fraction of that of the free base [3]: approximately 1/12

O=C(O)c1cn(C2CC2)c2cc(N3CCNCC3)c(F)cc2c1=O [Ciprofloxacin]
log reduction at 25 mg/kg [4, 14]: 2.32
log reduction at 25 mg/kg [4, 15]: 1.45
log reduction at 25 mg/kg [4, 16]: 1.59
log reduction at 25 mg/kg [4, 17]: 0.41
penetration into lung tissues [5]: much less efficiently than levofloxacin
Pa MIC90 [6]: 8 µg/mL
rank of potency against Pa [6]: most potent
peak concentration, serum [7]: ~4.2 µg/mL
time of peak drug concentration, serum [7]: 1.5 h
MSSA MIC90 (MSSA): 1 µg/mL
Aerosol Tolerability and Taste [2]: very strong, bitter unpleasant
MRSA MIC90 [8]: 64 µg/mL
SP MIC90 [9]: 2 µg/mL

CO/N=C1\CN(c2nc3c(cc2F)c(=O)c(C(=O)O)cn3C2CC2)CC1CN (stereo not drawn) [Gemifloxacin]
log reduction at 25 mg/kg [4, 14]: 3.2
log reduction at 25 mg/kg [4, 15]: 2.28
F, % from Lung vs. IV ([10]; IT, 10 mg/kg): 86%
AUC [10, 18]: 536000 ng·h/mL
AUC ([10]; rat, iv, 8 mg/kg): 3720 ng·h/mL
half-life ([10]; rat, serum, iv, 8 mg/kg, read-out: Serum t1/2 (converted)): 1.04 h
Pa MIC90 [6]: 8 µg/mL
rank of potency against Pa [6]: most potent
Initial Solution pH (physchem): 4.7
Initial Solution Appearance (physchem): colorless, transparent, no
solubility at 10 min (physchem): > 10000 µg/mL
MSSA MIC90 (MSSA): 0.06 µg/mL
Aerosol Tolerability and Taste [2]: strong unpleasant bitter taste, strong
MRSA MIC90 [8]: 2 µg/mL
rank of potency against MRSA [8]: most potent
SP MIC90 [9]: 0.06 µg/mL

C[C@H]1COc2c(N3CCN(C)CC3)c(F)cc3c(=O)c(C(=O)O)cn1c23.O=C(O)c1cc2ccccc2c(Cc2c(O)c(C(=O)O)cc3ccccc23)c1O [levofloxacin pamoate]
dissolution rate (Dissolution rate studies; [12]): approximately 0.146 mg/min
dissolution rate (Dissolution rate studies; 10-60 minutes, pH 7.4 Tris buffer): 0.0331 mg/min

CO/N=C1\CN(c2nc3c(cc2F)c(=O)c(C(=O)O)cn3C2CC2)CC1CN (stereo not drawn) [Gemifloxacin mesylate]
pH of filtered solution in water [11]: 4.28 and 4.21 and 4.40 and 4.32 and 4.20

DNase
increase of sol elastase activity after treatment of CF sputum (elastase): 190%

CCn1cc(C(=O)O)c(=O)c2cc(F)c(N3CCNC(C)C3)c(F)c21 (stereo not drawn) [Lomefloxacin]
Pa MIC90 [6]: 32 µg/mL
Initial Solution pH (physchem): 4.2
Initial Solution Appearance (physchem): cloudy, visible sediment
After pH Adjustment Appearance (physchem): transparent, no sediment,
solubility at 10 min (physchem): > 10000 µg/mL
pH of final solution (physchem): 4.2
MSSA MIC90 (MSSA): 2 µg/mL
Aerosol Tolerability and Taste [2]: chemical taste, somewhat bitter,
MRSA MIC90 [8]: >32 µg/mL
SP MIC90 [9]: 16 µg/mL

C[C@@H]1CN(c2c(F)c(F)c3c(=O)c(C(=O)O)cn(C4CC4)c3c2F)C[C@H](C)N1 [Orbifloxacin]
Pa MIC90 [6]: >32 µg/mL
Initial Solution Appearance (physchem): white, cloudy, visible
After pH Adjustment Appearance (physchem): colorless, transparent, no
After pH Adjustment pH (physchem): 1.7
solubility at 10 min (physchem): > 10000 µg/mL
pH of final solution (physchem): 1.7
MSSA MIC90 (MSSA): 2 µg/mL
Aerosol Tolerability and Taste [2]: very acidic, strong bitter unpleasant
cough on aerosol exposure [2]: associated with cough
SP MIC90 [9]: 2 µg/mL

COc1c(N2CCNC(C)C2)c(F)cc2c(=O)c(C(=O)O)cn(C3CC3)c12 (stereo not drawn) [Gatifloxacin]
log reduction at 25 mg/kg [4, 14]: 1.48
log reduction at 25 mg/kg [4, 15]: 2.11
log reduction at 25 mg/kg [4, 16]: 0.34
log reduction at 25 mg/kg [4, 17]: 0.02
F, % from Lung vs. IV ([10]; IT, 10 mg/kg): 100%
AUC [10, 18]: 54700 ng·h/mL
AUC ([10]; rat, iv, 10 mg/kg): 5320 ng·h/mL
Pa MIC90 [6]: 16 µg/mL
rank of potency against Pa [6]: most potent
Initial Solution pH (physchem): 7.0
Initial Solution Appearance (physchem): white, cloudy, visible
After pH Adjustment Appearance (physchem): slight yellow color,
After pH Adjustment pH (physchem): 3.0
solubility at 10 min (physchem): > 10000 µg/mL
pH of final solution (physchem): 3.0
MSSA MIC90 (MSSA): 0.125 µg/mL
Aerosol Tolerability and Taste [2]: moderate bitter unpleasant taste,
cough on aerosol exposure [2]: associated with cough
MRSA MIC90 [8]: 4 µg/mL
SP MIC90 [9]: 0.5 µg/mL

O=C(O)CCCC[C@@H](S)CCS (racemic) [DHLA, dihydrolipoic acid]
effect on elastase activity after treatment of CF sputum (elastase): did not increase elastase activity

NC1CCN(c2nc3c(cc2F)c(=O)c(C(=O)O)cn3-c2ccc(F)cc2F)C1 (stereo not drawn) [Tosufloxacin]
log reduction at 25 mg/kg [4, 14]: 0.48
log reduction at 25 mg/kg [4, 15]: 0.24
log reduction at 25 mg/kg [4, 16]: 0
log reduction at 25 mg/kg [4, 17]: -1.33
Pa MIC90 [6]: 16 µg/mL
Initial Solution pH (physchem): 3.5
Initial Solution Appearance (physchem): white, turbid, visible
After pH Adjustment Appearance (physchem): white, cloudy, less turbid,
After pH Adjustment pH (physchem): 1.5
pH of final solution (physchem): 1.5
solubility on titration with 1N HCl (physchem; pH 1.5): solubility was not reached by pH 1.5
MSSA MIC90 (MSSA): 0.125 µg/mL
MRSA MIC90 [8]: >16 µg/mL
SP MIC90 [9]: 0.5 µg/mL

CCCCCCCCCCCCCCCCCC(=O)O.C[C@H]1COc2c(N3CCN(C)CC3)c(F)cc3c(=O)c(C(=O)O)cn1c23 [levofloxacin stearate]
dissolution rate (Dissolution rate studies; [12]): 0.499 mg/min
dissolution rate (Dissolution rate studies; [13]): 0.161 mg/min

B1: reduced rhTrx: stable reduced form of recombinant human thioredoxin (protein, UniProt P10599 2-105, looked up)
Thioredoxin: VKQIESKTAFQEALDAAGDKLVVVDFSATWCGPCKMIKPFFHSLSEKYSNVIFLEVDVDDCQDVASECEVKCMPTFQFFKKGQKVGEFSGANKEKLEATINELV
modifications: reduced form
increase of sol elastase activity after treatment of CF sputum (elastase): 60%
